The record followed here is PMC6154603, “Study on the Rationality for Antiviral Activity of Flos Lonicerae Japonicae-Fructus Forsythiae Herb Couple Preparations Improved by Chito-Oligosaccharide via Integral Pharmacokinetics” (Molecules : A Journal of Synthetic Chemistry and Natural …, 2017).

By IC50 is commonly meant the concentration at which inhibition is half-maximal. By AUC(0-inf) is commonly meant the area under the concentration-time curve extrapolated to infinity. High values mean high exposure, low ones low exposure. Broadly, the AUC(0-t) is the area under the concentration-time curve up to a stated or last time point. A higher AUC(0-t) goes with more exposure. As a reminder, the Cmax is the peak of the concentration-time curve. By MRT last is commonly meant a mean duration of stay, worked out from the concentration-time curve. As a reminder, the Tmax is the time at which the peak concentration occurs. What is called half-life is the time in which the quantity being followed falls by half. Lower therefore signals fast loss. For orientation: AUC means the area under the concentration-time curve, a measure of exposure.

For data set [1], the system named is influenza virus strain, A/PR8/34 (H1N1). Format: cell-based. To be noted: compared with PBS group; ribavirin 20 mg/kg orally as positive control; Figure S1.
In data set [2] the test system is influenza A virus (H1N1). The data set is described as follows: microbe, parasite or virus in culture. To be noted: for IC50: Influenza A virus, H1N1, MDCK, tested 0.0625-1.0000 mM, unit inferred, read-out: IC50 (anti-viral activity). Format: cell-based.
Data set [3] is described as follows: Pharmacokinetics of caffeic acid derivatives after oral administration of the FLJ-FF herb couple. To be noted: rat, in vivo. The arrangement: species or system rats. On the procedure: The pharmacokinetics of caffeic acid derivatives in the FLJ-FF herb couple was studied in our previous study. Integral concentrations at each time point for the eight components were calculated based on the AUC-weighting method. The weighting coefficient for each component was calculated using Equations (4) and (5). […] AUC was determined using GraphPad Prism for Windows, version 5 (Graph Pad Software Inc., San Diego, CA, USA). […] Subsequently, plasma was prepared by centrifugation at 1816× g for 7 min and immediately analyzed or stored at −70 °C for further analysis after being mixed with 10 μL of 5% formic acid. The treatment and UPLC-ESI-MS/MS analysis for samples have been studied previously.

A short description of data set [4]: In vivo pharmacokinetic study of FLJ-FF herb couple preparations with or without COS. Also noted: species or system rats. To be noted: rat, po. The source says:
The rats were administrated product A and A4 at the dosages of at the dosage of 32 g raw medicine per kilogram, product B and B4 at the dosage of 64 g raw medicine per kilogram, product C and C4 at the dosage of 48 g raw medicine per kilogram, and product D and D4 at the dosage of 160 g raw medicine per kilogram, respectively.

Data set [5] deals with Caco-2 cell. Put plainly: In vitro Caco-2 cell transport model. Type of data set: in vitro ADME, human. The conditions noted are these: Shuang-Huang-Lian, with 0.1% (w/v) of COS vs control. The text has this: The protocol of Caco-2 cell study was shown previously.
On the technique in general: Caco-2 cells form a polarised layer with tight junctions and transporters.

`NC(=O)c1ncn([C@@H]2O[C@H](CO)[C@@H](O)[C@H]2O)n1` [ribavirin]: the “inhibition rate on influenza virus” value in data set [1] was “remarkable increase”.

Regarding `O=C(C=Cc1ccc(O)c(O)c1)OC1CC(O)(C(=O)O)CC(O)C1O` (stereo not drawn) [Neochlorogenic acid], the IC50 in data set [2] turned out to be 722 µM. In data set [3], this compound showed an AUC(0-inf) of 715 ng·h/mL, an area under the curve AUC(0-t) of 579 ng·h/mL, a Cmax of 575 ± 170 ng/mL and an MRT last of 5.3 h. Besides, in data set [3], the time of peak concentration (Tmax) was 0.167 h and the half-life was 3.49 ± 0.423 h.

Turning to `O=C(/C=C/c1ccc(O)c(O)c1)O[C@@H]1C[C@](O)(C(=O)O)C[C@@H](OC(=O)/C=C/c2ccc(O)c(O)c2)[C@H]1O` [3,5-dicaffeoylquinic acid], the exposure (AUC) in data set [4] (AUC (Control)) is 57.7 ng·h/mL. For the same compound, the “highest Papp-value increase” value in data set [5] came to 8.66 fold. The half-inhibitory concentration (IC50) in data set [2] was found to be 393 µM. For the same compound, in data set [3], the AUC(0-inf) was 54.2 ng·h/mL, the AUC(0-t) was 53.1 ng·h/mL, the highest level (Cmax) was 70.5 ± 28.1 ng/mL and the MRT last is 6.39 h. In data set [3], the time to peak (Tmax) is 0.1667 ± 0 h and the half-life came to 5.95 ± 0.559 h.

On to `O=C(C=Cc1ccc(O)c(O)c1)OC1CC(O)(C(=O)O)CC(O)C1OC(=O)C=Cc1ccc(O)c(O)c1` (stereo not drawn) [3,4-dicaffeoylquinic acid], for which the “highest Papp-value increase” value in data set [5] amounted to 5.86 fold. In addition, the concentration for half-maximal inhibition (IC50) in data set [2] was 401 µM. In data set [3], this compound gave a total exposure AUC(0-inf) of 213 ng·h/mL, an area under the curve AUC(0-t) of 141 ng·h/mL, a Cmax of 66.7 ± 15.4 ng/mL and an MRT last of 7.6 h. Moreover, in data set [3], the Tmax is 0.167 h and the half-life worked out at 9.18 ± 0.649 h.

In the case of `O=C(C=Cc1ccc(O)c(O)c1)OC1C(O)CC(O)(C(=O)O)CC1O` (stereo not drawn) [Cryptochlorogenic acid, cryptochlorogenic acid], in data set [5], the “highest Papp-value increase” value amounted to 3.13 fold. For the same compound, the half-inhibitory concentration (IC50) in data set [2] was 735 µM. In data set [3], the total exposure AUC(0-inf) is 726 ng·h/mL, the exposure AUC(0-t) was 713 ng·h/mL, the peak level (Cmax) was 950 ± 201 ng/mL and the mean residence time MRT last was 4.84 h. For the same compound, in data set [3], the time to peak (Tmax) was 0.167 h and the half-life amounted to 4.64 ± 1.03 h.

For the compound `O=C(/C=C/c1ccc(O)c(O)c1)O[C@@H]1C[C@](O)(C(=O)O)C[C@@H](O)[C@H]1O` [Chlorogenic acid], in data set [4] (25 mg/kg, AUC (Absorption Enhancer)), the area under the curve (AUC) is 968 ng·h/mL. The AUC in data set [4] (AUC (Control)) is 638 ng·h/mL. In data set [2], the “antiviral activity, folds lower than that of forsythoside A” value is 2.47 folds and the IC50 is 754 µM. In data set [3], this compound had an AUC(0-inf) of 3160 ng·h/mL, an area under the curve AUC(0-t) of 3220 ng·h/mL, a maximum concentration (Cmax) of 2500 ± 438 ng/mL and a mean residence time (MRT last) of 4.74 h. Also, the half-life in data set [3] came to 3.9 ± 0.699 h.
